Test results from patent publication US20250000903A1, “EXPANSION PROCESSES AND AGENTS FOR TUMOR INFILTRATING LYMPHOCYTES” (Iovance Biotherapeutics, Inc., priority 2021, published 2025).

Experiments:
Assay type in all cases: cell-based, human
[1] = test system: tumor-infiltrating lymphocytes (TIL); assay: TIL ex vivo expansion with AKTi ipatasertib: expansion and viability; conditions: AKTi 1 μM during ex vivo expansion
Experimental: (§1) Patient tumors from different indications were received, fragmented, and subjected to an expansion protocol for TIL manufacturing. Different doses (0.3 μM and 1 μM) of the pan-AKT inhibitor (AKTi) ipatasertib were added to the culture during ex vivo expansion. The expansion potential, as well as the phenotypic and functional characteristics of TIL were evaluated on the final TIL product.

[2] = test system: tumor-infiltrating lymphocytes (TIL); assay: Functional characteristics of final TIL product expanded with AKTi; conditions: AKTi treatment during ex vivo expansion
Experimental: as §1

[3] = test system: tumor-infiltrating lymphocytes (TIL); assay: Phenotypic characteristics of final TIL product expanded with AKTi; conditions: AKTi 1 μM
Experimental: as §1

## CC(C)NC[C@@H](C(=O)N1CCN(c2ncnc3c2[C@H](C)C[C@H]3O)CC1)c1ccc(Cl)cc1 [AKTi, ipatasertib]
[1]
  expansion of TIL relative to control: equivalent
  viability of TIL relative to control: equivalent
[2]
  cytotoxicity: increased
  frequency of IFNγ+TNFα+CD8+ T cells: increase
[3]; CD39-CD69- cells
  expression of CD38 and the transcription factors T-bet and Tox: reduced
[3]; present even after re-stimulation
  population of less differentiated CD39-CD69- cells: doubled
